# Data taken from article PMC8607797 (Nature chemical biology, 2021).
# Tests used:
# Assay type in all cases: cell-based
# [1] = molecular target: T1, Ephx1 (Mus musculus, UniProt Q9D379); assay: live-cell chemoproteomic competition of probe […]
# T1 sequence (Q9D379 1-455): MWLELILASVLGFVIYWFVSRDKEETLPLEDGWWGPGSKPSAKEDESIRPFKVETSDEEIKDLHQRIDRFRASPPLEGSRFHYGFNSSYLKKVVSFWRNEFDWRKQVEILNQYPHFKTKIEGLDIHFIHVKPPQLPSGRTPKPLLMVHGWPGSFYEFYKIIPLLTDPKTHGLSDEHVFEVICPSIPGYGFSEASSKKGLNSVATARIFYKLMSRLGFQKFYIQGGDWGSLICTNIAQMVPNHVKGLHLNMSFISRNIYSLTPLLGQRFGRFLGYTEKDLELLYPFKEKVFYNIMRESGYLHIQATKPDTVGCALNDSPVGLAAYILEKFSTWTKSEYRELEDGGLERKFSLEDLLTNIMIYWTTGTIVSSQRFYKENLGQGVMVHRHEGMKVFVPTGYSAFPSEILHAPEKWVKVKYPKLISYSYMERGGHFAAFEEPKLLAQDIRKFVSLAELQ
# [2] = molecular target: T2, Cav1 (Mus musculus, UniProt P49817); assay: live-cell chemoproteomic competition of probe […]
# T2 sequence (P49817 2-178): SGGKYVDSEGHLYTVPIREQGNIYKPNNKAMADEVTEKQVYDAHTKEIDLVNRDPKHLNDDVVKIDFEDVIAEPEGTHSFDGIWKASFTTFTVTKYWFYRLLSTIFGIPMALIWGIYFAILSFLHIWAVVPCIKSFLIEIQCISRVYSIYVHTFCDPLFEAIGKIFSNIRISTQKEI
# [3] = molecular target: T3, Tmem97 (σ2 receptor) (Mus musculus, UniProt Q8VD00); assay: live-cell competition of probe […] labeling, in-gel fluorescence
# T3 sequence (Q8VD00 1-176): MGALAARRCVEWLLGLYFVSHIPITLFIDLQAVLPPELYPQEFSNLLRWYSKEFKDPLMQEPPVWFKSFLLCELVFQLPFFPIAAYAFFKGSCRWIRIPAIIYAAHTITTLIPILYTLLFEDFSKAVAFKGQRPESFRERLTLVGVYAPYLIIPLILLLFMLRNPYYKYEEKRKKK
"live-cell competition of probe 2 labeling, in-gel fluorescence [3] [% competition at 50]",SMILES,live-cell chemoproteomic competition of probe 2 (TMT MS) [1],live-cell chemoproteomic competition of probe 2 (TMT MS) [2]
–,"CC(C)CCC[C@](C)(O)[C@H]1CC[C@H]2[C@@H]3CC=C4C[C@@H](O)CC[C@]4(C)[C@H]3CC[C@@]21C [compound 1, 20(S)-hydroxycholesterol]","The most competable proteins encompassed the highly enriched targets Tmem97, Ephx1, and Cav1","The most competable proteins encompassed the highly enriched targets Tmem97, Ephx1, and Cav1"
50,"CC(C)CCC[C@@](C)(O)[C@H]1CC[C@H]2[C@@H]3CC=C4C[C@@H](O)CC[C@]4(C)[C@H]3CC[C@@]21C [compound 13, 20(R)-hydroxycholesterol]",–,–
